Measured values published in patent USRE47785E1, “7-{(3S,4S)-3-[(cyclopropylamino)methyl]-4-fluoropyrrolidine-1-yl}-6-fluoro-1-(2-fluoroethyl)-8-methoxy-4-oxo-1,4-dihydroquinoline-3-carboxylic acid crystal” (KYORIN PHARMACEUTICAL CO., LTD., priority 2011, dated 2019).
Like-named read-outs stand apart in the source and are kept apart here.

Tests used:
[1] = Storage stability test (40° C., 75% RH, open or closed, opaque containers, HPLC); details: for amount of remaining unaltered crystals, INITIAL: 40° C./75% RH storage test
From the text: HPLC conditions: a column, which is Inertsil ODS-3V manufactured by GL Sciences Inc., and has an inner diameter of 4.6 mm, a length of 15 cm, and a particle diameter of […] was used. […] The measurement wavelength used was 294 nm.

[2] = Test of solubility in water
[3] = Test of storage stability against light (D65 fluorescent lamp irradiation)

Q: For `COc1c(N2C[C@H](CNC3CC3)[C@H](F)C2)c(F)cc2c(=O)c(C(=O)O)cn(CCF)c12.CS(=O)(=O)O` (hydrate or solvate) [CRYSTALS OF METHANESULFONATE SALT, 7-{(3S,4S)-3-[(cyclopropylamino)methyl]-4-fluoropyrrolidine-1-yl}-6-fluoro-1-(2-fluoroethyl)-8-methoxy-4-oxo-1,4-dihydroquinoline-3-carboxylic Acid Methanesulfonate Salt], which melting point is on record?
A: 207 to 210 °C (dec.)

Q: Which results are given for `COc1c(N2C[C@H](CNC3CC3)[C@H](F)C2)c(F)cc2c(=O)c(C(=O)O)cn(CCF)c12.Cl` [CRYSTALS A, 7-{(3S,4S)-3-[(cyclopropylamino)methyl]-4-fluoropyrrolidine-1-yl}-6-fluoro-1-(2-fluoroethyl)-8-methoxy-4-oxo-1,4-dihydroquinoline-3-carboxylic Acid Hydrochloride Salt (Crystals A)]?
A: amount of remaining unaltered crystals, INITIAL [1]: 99.52; change in the amount of unaltered crystals at 4 weeks (in words) ([1]; 40° C./75% RH): no change; amount of remaining unaltered crystals, 4 WEEKS CLOSED CONDITION ([1]; 40° C./75% RH): 99.52; amount of remaining unaltered crystals, 4 WEEKS OPEN CONDITION ([1]; 40° C./75% RH): 99.51; SOLUBILITY [2]: >10 mg/mL; amount of remaining unaltered crystals, total irradiation amount 110,000 lx·hrs [3]: 97.74; change in the amount of unaltered crystals at 110,000 lx·hrs (in words) [3]: almost no change; amount of remaining unaltered crystals, total irradiation amount 220,000 lx·hrs [3]: 97.43; amount of remaining unaltered crystals, total irradiation amount 530,000 lx·hrs [3]: 97.32; amount of remaining unaltered crystals, total irradiation amount 860,000 lx·hrs [3]: 96.32; amount of remaining unaltered crystals, total irradiation amount 1,280,000 lx·hrs ([3]; 1,280,000 lx·hrs): 91.33; change in the amount of crystals at 1,280,000 lx·hrs (in words) ([3]; 1,280,000 lx·hrs): found to decrease; amount of remaining unaltered crystals, INITIAL [3]: 98.68

Q: What does the source list for `COc1c(N2C[C@H](CNC3CC3)[C@H](F)C2)c(F)cc2c(=O)c(C(=O)O)cn(CCF)c12.Cl.O` [CRYSTALS B, 7-{(3S,4S)-3-[(cyclopropylamino)methyl]-4-fluoropyrrolidine-1-yl}-6-fluoro-1-(2-fluoroethyl)-8-methoxy-4-oxo-1,4-dihydroquinoline-3-carboxylic Acid Hydrochloride Salt Hydrate (Crystals B)]?
A: amount of remaining unaltered crystals, INITIAL [1]: 99.59; change in the amount of unaltered crystals at 4 weeks (in words) ([1]; 40° C./75% RH): no change; amount of remaining unaltered crystals, 4 WEEKS CLOSED CONDITION ([1]; 40° C./75% RH): 99.65; amount of remaining unaltered crystals, 4 WEEKS OPEN CONDITION ([1]; 40° C./75% RH): 99.64; SOLUBILITY [2]: >10 mg/mL

Q: Which “amount of remaining unaltered crystals, INITIAL” value [1] does the source give for `COc1c(N2C[C@H](CNC3CC3)[C@H](F)C2)c(F)cc2c(=O)c(C(=O)O)cn(CCF)c12.Cl.O` [CRYSTALS C, 7-{(3S,4S)-3-[(cyclopropylamino)methyl]-4-fluoropyrrolidine-1-yl}-6-fluoro-1-(2-fluoroethyl)-8-methoxy-4-oxo-1,4-dihydroquinoline-3-carboxylic Acid Hydrochloride Salt Hydrate (Crystals C)] here?
A: 99.75

Q: What about the “change in the amount of unaltered crystals at 2 weeks (in words)” value ([1]; 40° C./75% RH, 2 weeks) of the same compound?
A: found to decrease

Q: What about the “amount of remaining unaltered crystals, 2 WEEKS CLOSED CONDITION” value ([1]; 40° C./75% RH, 2 weeks) of the same compound?
A: 99.37

Q: And the “amount of remaining unaltered crystals, 2 WEEKS OPEN CONDITION” value ([1]; 40° C./75% RH, 2 weeks)?
A: 99.47

Q: With `COc1c(N2C[C@H](CNC3CC3)[C@H](F)C2)c(F)cc2c(=O)c(C(=O)O)cn(CCF)c12.CS(=O)(=O)O` [CRYSTALS OF METHANESULFONATE SALT, 7-{(3S,4S)-3-[(cyclopropylamino)methyl]-4-fluoropyrrolidine-1-yl}-6-fluoro-1-(2-fluoroethyl)-8-methoxy-4-oxo-1,4-dihydroquinoline-3-carboxylic Acid Methanesulfonate Salt] as the compound, how does the “amount of remaining unaltered crystals, INITIAL” value [1] read?
A: 95.18

Q: What about the “change in the amount of unaltered crystals at 4 weeks (in words)” value ([1]; 40° C./75% RH) of the same compound?
A: no change

Q: What about the “amount of remaining unaltered crystals, 4 WEEKS CLOSED CONDITION” value ([1]; 40° C./75% RH) of the same compound?
A: 96.09

Q: What about the “amount of remaining unaltered crystals, 4 WEEKS OPEN CONDITION” value ([1]; 40° C./75% RH) of the same compound?
A: 95.89

Q: What about the SOLUBILITY ([2]; Methanesulfonate Salt) of the same compound?
A: >10 mg/mL

Q: And the SOLUBILITY ([2]; water, SOLUBILITY)?
A: ≥ 10 mg/mL

Q: And the “amount of remaining unaltered crystals, total irradiation amount 110,000 lx·hrs” value [3]?
A: 98.01

Q: And the “change in the amount of unaltered crystals at 110,000 lx·hrs (in words)” value [3]?
A: almost no change

Q: And the “amount of remaining unaltered crystals, total irradiation amount 220,000 lx·hrs” value [3]?
A: 97.5

Q: What about the “amount of remaining unaltered crystals, total irradiation amount 530,000 lx·hrs” value [3] of the same compound?
A: 96.91

Q: What about the “amount of remaining unaltered crystals, total irradiation amount 860,000 lx·hrs” value [3] of the same compound?
A: 95.37

Q: What about the “amount of remaining unaltered crystals, total irradiation amount 1,280,000 lx·hrs” value ([3]; 1,280,000 lx·hrs) of the same compound?
A: 95.11

Q: And the “change in the amount of crystals at 1,280,000 lx·hrs (in words)” value ([3]; 1,280,000 lx·hrs)?
A: found to decrease

Q: And the “amount of remaining unaltered crystals, INITIAL” value [3]?
A: 98.83

Q: With `COc1c(N2C[C@H](CNC3CC3)[C@H](F)C2)c(F)cc2c(=O)c(C(=O)O)cn(CCF)c12` [FREE CRYSTALS, 7-{(3S,4S)-3-[(cyclopropylamino)methyl]-4-fluoropyrrolidine-1-yl}-6-fluoro-1-(2-fluoroethyl)-8-methoxy-4-oxo-1,4-dihydroquinoline-3-carboxylic acid] as the compound, how does the “amount of remaining unaltered crystals, INITIAL” value [1] read?
A: 95.18

Q: What about the “amount of remaining unaltered crystals, 2 WEEKS CLOSED CONDITION” value ([1]; 40° C./75% RH, 2 weeks) of the same compound?
A: 95.13

Q: What about the “amount of remaining unaltered crystals, 2 WEEKS OPEN CONDITION” value ([1]; 40° C./75% RH, 2 weeks) of the same compound?
A: 95.27

Q: What about the “amount of remaining unaltered crystals, 4 WEEKS CLOSED CONDITION” value ([1]; 40° C./75% RH) of the same compound?
A: 95.00

Q: And the “amount of remaining unaltered crystals, 4 WEEKS OPEN CONDITION” value ([1]; 40° C./75% RH)?
A: 95.35

Q: What about the SOLUBILITY [2] of the same compound?
A: <1 mg/mL

Q: What about the SOLUBILITY ([2]; water, SOLUBILITY) of the same compound?
A: ≤ 1 mg/mL

Q: What about the “amount of remaining unaltered crystals, total irradiation amount 110,000 lx·hrs” value [3] of the same compound?
A: 77.71

Q: And the “change in the amount of unaltered crystals at 110,000 lx·hrs (in words)” value [3]?
A: significantly decrease

Q: And the “amount of remaining unaltered crystals, total irradiation amount 220,000 lx·hrs” value [3]?
A: 75.31

Q: And the “amount of remaining unaltered crystals, total irradiation amount 530,000 lx·hrs” value [3]?
A: 66.34

Q: And the “amount of remaining unaltered crystals, total irradiation amount 860,000 lx·hrs” value [3]?
A: 49.82

Q: And the “amount of remaining unaltered crystals, total irradiation amount 1,280,000 lx·hrs” value ([3]; 1,280,000 lx·hrs)?
A: 44.85

Q: What about the “reduction in the amount of crystals at 1,280,000 lx·hrs” value ([3]; 1,280,000 lx·hrs) of the same compound?
A: ≥ 50%

Q: What about the “amount of remaining unaltered crystals, INITIAL” value [3] of the same compound?
A: 96.12
